Measured values as given in PMC3218054, “Characterisation of the Interaction of the C-Terminus of the Dopamine D2 Receptor with Neuronal Calcium Sensor-1” (PLoS ONE, 2011).
Read-outs that look alike come from different tables or passages of the source. Ends that are not written are not given here.

Assays:
[1] = Solubility of peptides in aqueous buffer; assay type: physicochemical
Text: The peptide (hereafter referred to as D2 peptide) used here corresponds to residues 428–443 of the human D2 receptor. The synthetic D2 peptide ([…]) and its modified form D2SR ([…]), were purchased from Peptide Protein Research Ltd., Fareham, PO15 6DP, UK. The shorter form, corresponding to residues 428–435 ([…]) were, purchased from GenicBio, China. The peptides was delivered >95% pure. […] Therefore, in all the experiments, peptide samples were first dissolved in a minimal amount of DMSO and then diluted with the relevant buffer. If necessary, pH values of the samples were re-adjusted to the desired value.
(§1) Two peptides D2 and D2SR were used for the NMR studies. […] The peptides were first dissolved in minimal amounts of DMSO (approximately 1–2 µl) before adding the protein solution to achieve the appropriate peptide to protein ratio.

NCS-1 [2] = biological target: T1, NCS-1 (Rattus norvegicus, UniProt P62168); test: NMR titration / chemical shift mapping of peptide binding to NCS-1
T1 construct: His tag (TEV-cleavable, pET-M11) (N, cleaved yes); made in house; host or cells: E. coli BL21 (DE3)
T1 sequence (P62168 whole entry): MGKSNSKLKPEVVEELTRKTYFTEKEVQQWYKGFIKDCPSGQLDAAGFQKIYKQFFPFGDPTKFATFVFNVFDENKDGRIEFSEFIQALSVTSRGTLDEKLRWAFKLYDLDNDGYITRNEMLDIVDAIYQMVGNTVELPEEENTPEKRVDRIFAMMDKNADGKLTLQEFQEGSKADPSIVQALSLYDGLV
Experimental: (§2) An expression construct of Rattus norvegicus NCS-1 [6] was sub-cloned from a pGEX-6p plasmid expressing NCS-1 [36] into pET-M11 vector. The primers were designed based on the cDNA sequence obtained from GenBank accession no. L27421 with Nco-1 and Kpn-1 as restriction digest sites. The sense and antisense strands were 5′[…] 3′ and 5′[…] CTA TAC CAG CCC GTC GTA 3 ′ respectively. Polymerase chain reaction was carried out using KOD Hot Start DNA Polymerase from Novagen. Confirmation of the insert was obtained through DNA sequencing. The R102Q mutation was generated by site-directed mutagenesis.
(§3) NCS-1 plasmid was transformed into E.coli strain BL21 (DE3) (Novagen). Protein expression in Luria Broth (LB) and 2M9 minimal media performed by growing the cells to mid log (0.6–0.7 OD A^o600) at 30 °C; after induction with 1 mM IPTG the culture was left to grow overnight at 18 °C. ^15N NCS-1 and doubly labelled ^13C^15N proteins were expressed using 2M9 media containing ^15NH4Cl only or ^13C glucose and ^15NH4Cl as the carbon and nitrogen source. 1 ml of the starter culture was grown in LB overnight, centrifuged, and the pellet added to a 50 ml labelled media and left to grow overnight in 50 ml labelled culture. The overnight culture was used to inoculate the labelled growth medium so that the starting optical density was less than 0.1 A-600 and protein expressed as described above. Cells were harvested and resuspended into the lysis buffer (50 mM TrisHCl, 200 mM NaCl 5 mMCaCl2 pH 7.5 plus a tablet per litre of culture of Complete EDTA Free Protease inhibitor (Roche Applied Science).
NCS-1 was prepared in Tris buffer pH 6.8 in the presence of 5 mM MgCl2 and 5 mM CaCl2. Unless otherwise state, NMR spectra were recorded at 27 °C on Bruker DRX 800 and 600 MHz spectrometers equipped with CryoProbes. Data were processed using the Bruker Software TopSpin and analysed using CCPN software. Sequence-specific backbone and side-chain resonance assignment of NCS-1 was transferred from the previously reported assignments on unmyristoylated Ca^2+ loaded NCS-1 (Biological Magnetic Resonance Data Bank accession number 4378); however, due to differences in sample conditions and temperature, many resonances were re-assigned during the course of these studies using HNCA, HN(CO)CA, HNCO, HN(CA)CO, CBCA(CO)NH, CBCANH, HBHA(CO)NH and HCCH-TOCSY experiments. In addition, the resonance assignment for the aromatic side-chain had been incomplete. The aromatic side-chains were partially assigned using 2D [^1H, ^13C] -TROSY, and homonuclear TOCSY and NOESY spectra recorded in D2O.
as §1
The minimum chemical-shift differences between free and D2-bound NCS-1 were expressed as: Δδ = √ {(ΔH/0.03)^2 + (ΔN/0.03)^2}. Values of Δδ greater than 0.07 were considered significant.
Figure 3 Interactions between NCS-1 and D2 Peptide monitored using NMR spectroscopy. (A) ^1H^15N HSQC spectra of ^15N,^13C NCS-1 (1 mM) in 50 mM Tris buffer, 50 mM NaCl, 5 mM CaCl2, pH 6.5, 300 K on Avance Bruker 800 MHz spectrometer in the absence (black) or in the presence of D2SR at a final concentration of 5 mM (red). (B) Sections of ^1H^15N HSQC spectra of ^15N,^13C NCS-1 showing the progression of peaks throughout the peptide titration (from black to red). Shown are the various characteristics of resonance perturbation ranging from complete line-broadening to gradual change in chemical shifts or a mixture of shifts and line-broadening. (C) ^1H^13C HSQC spectra of ^15N,^13C NCS-1 (1 mM) (black) in the presence of D2SR (final concentration of 5 mM) (red) indicating some of the resolved methyl groups with most significant shift changes.

NCS-1 [3] = biological target: T1, NCS-1; test: Intrinsic tryptophan fluorescence titration of peptide binding to wild type NCS-1
Experimental: as §2
as §3, with “Cells were harvested and resuspended into the lysis buffer (50 mM TrisHCl, 200 mM NaCl 5 mMCaCl2 pH 7.5 plus a tablet per litre of culture of Complete EDTA Free Protease inhibitor (Roche Applied Science).” left out
(§4) To monitor intrinsic tryptophan fluorescence of NCS-1 proteins, [37], purified recombinant NCS-1 at a concentration of 1 µM in a calcium free buffer (20 mM HEPES, 139 mM NaCl, 2 mM ATP, 5 mM EGTA, 5 mM nitrolotriacetic acid, pH 7.4) were excited at room temperature with 280 nm light, and their emission spectra from 290–410 nm were measured, using a Jasco FP-6300 spectrofluorometer (Tokyo, Japan). The concentration of free calcium was increased by addition of CaCl2 to give a calculated free Ca^2+ concentration of 1 µM and an additional emission spectrum were measured. The D2 peptide was then added to give incremental increase in peptide concentration with emission spectra measured after each addition. The data for the measured fluorescence change at each peptide concentration were fitted to a logistic fit using non-linear curve fitting in OriginPro (Microcal).
Figure 2 Binding of the dopamine D2 receptor C-terminus to NCS-1 monitored using tryptophan fluorescence. (A) The spectra represent intrinsic tryptophan fluorescence of NCS-1 before and after addition 1 µM Ca^2+ and after subsequent addition of the D2SR peptide. (B) Extent of the changes in tryptophan fluorescence following sequential additions of D2SR peptide to the final concentrations indicated. […]

R102Q NCS-1 = biological target: T2, R102Q NCS-1 (Rattus norvegicus, UniProt P62168, R102Q); test: Intrinsic tryptophan fluorescence titration of peptide binding to R102Q NCS-1
T2 construct: His tag (TEV-cleavable, pET-M11) (N, cleaved yes); made in house; host or cells: E. coli BL21 (DE3)
T2 sequence (P62168 whole entry R102Q): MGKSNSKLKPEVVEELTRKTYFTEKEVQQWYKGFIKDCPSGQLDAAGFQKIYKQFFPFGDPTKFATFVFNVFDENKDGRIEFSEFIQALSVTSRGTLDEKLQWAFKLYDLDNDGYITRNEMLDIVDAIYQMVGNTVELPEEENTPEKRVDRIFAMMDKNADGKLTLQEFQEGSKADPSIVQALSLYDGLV
Experimental: as §2, §4
Figure 6 Significant line-broadening in the C-terminal region of NCS-1 and effect of the R102Q mutation on peptide binding. […] (B) Extent of the changes in tryptophan fluorescence following sequential additions of D2SR peptide to the final concentrations indicated in the presence of 1 µM Ca^2+. […] (C) Curve fitting of data from separate tryptophan fluorescence experiments enables determination of the concentration of D2SR peptide required for half-maximal binding and the Hill coefficient for wild type and R102Q NCS-1. […]

NCS-1 [4] = settings: receptor residues 428–435; cited from earlier work
Text: This seems surprising as these are the cytoplasmic residues in closest proximity to the transmembrane domain of the receptor and that in the structure of the dopamine D3 receptor (PDB accession 3PBL), the first two amino acids TF form part of penultimate helix VII of the receptor, rather than the C-terminus helix VIII.

NCS-1 [5] = test: Peptide binding to NCS-1, preliminary data (technique not stated)
[6] = up to a 10-fold excess of peptide

Q: With TFNIEFRKAFLKILHSR [D2SR] as the sequence, how does the “solubility in aqueous buffer” value ([1]; peptides first dissolved in DMSO, then diluted with buffer) read?
A: rather insoluble in aqueous buffer

Q: And the “solubility improvement over D2 peptide” value ([1]; two extra amino acids intended to increase solubility)?
A: solubility improvement was only marginal

Q: What about the “exchange regime of NCS-1 resonances” value (NCS-1 [2]; HSQC titration, D2SR) of the same sequence?
A: intermediate to fast exchange regime

Q: And the “least affected NCS-1 regions” value (NCS-1 [2]; HSQC titration, D2SR)?
A: helices1, 5, 8 and part of 2

Q: What about the “most affected NCS-1 regions, mapped onto 1G8I” value (NCS-1 [2]; HSQC titration, D2SR) of the same sequence?
A: residues located either in the hydrophobic ligand-binding crevice or in the regions linking the helical regions of the EF hands

Q: What about the “NCS-1 resonance perturbation (chemical shift changes/broadening)” value (NCS-1 [2]; ^1H-^15N and ^1H-^13C HSQC of ^15N,^13C NCS-1, 27 °C and 35 °C) of the same sequence?
A: At both temperatures chemical shift changes and/or broadening of specific NCS-1 resonances were observed

Q: And the “line-broadening of C-terminal residues 180–190 (helix 11) of NCS-1” value (NCS-1 [2]; ^1H^15N HSQC, peptide titration, 1 mM NCS-1, 0.5 mM D2SR, pH 6.5, 300 K)?
A: line-broadening occurring at sub-stoichiometric concentrations of D2SR

Q: And the “change in NCS-1 tryptophan fluorescence above that following addition of 1 µM free Ca^2+” value (NCS-1 [3]; 1 µM free Ca^2+)?
A: additional increase in fluorescence of a similar magnitude

Q: What about the Hill coefficient (NCS-1 [3]; D2SR, wild type NCS-1, 1 µM free Ca^2+, logistic fit, n = 5) of the same sequence?
A: ~1.5

Q: What about the Hill coefficient (R102Q NCS-1; D2SR, R102Q NCS-1, 1 µM Ca^2+, logistic fit, n = 4) of the same sequence?
A: around 1.5

Q: What about the “increase in affinity of the protein for D2SR by R102Q mutation” value (R102Q NCS-1; R102Q (n = 4) versus wild type (n = 5) NCS-1, 1 µM Ca^2+, unpaired Student's t-test) of the same sequence?
A: 2.07 fold

Q: What about the “affinity of binding to R102Q versus wild type NCS-1” value (R102Q NCS-1; compared with wild-type NCS-1) of the same sequence?
A: affinity of binding was increased in the mutant

Q: With “TFNIEFRK [shorter form, corresponding to residues 428–435 of the D2 receptor]” as the sequence, how does the “binding to NCS-1 (yeast 2-hybrid)” value (NCS-1 [4]) read?
A: shortest peptide that could bind NCS-1

Q: What about the “interaction with NCS-1 by NMR titration” value (NCS-1 [2]; [6]) of the same sequence?
A: no evidence for an interaction

Q: And the “ability to bind NCS-1 (restated finding, binding assays)” value (NCS-1 [3]; 8-residue peptide, binding assays = fluorescence and NMR titrations)?
A: not able to bind NCS-1

Q: What about the “interaction with NCS-1 by fluorescence titration” value (NCS-1 [3]; [6]) of the same sequence?
A: no evidence for an interaction

Q: For NIEFRKAFLKILHS, which “affinity for NCS-1 relative to TFNIEFRKAFLKILHS” value (NCS-1 [5]) is on record?
A: able to bind NCS-1 with similar affinity to […]

Q: Which “solubility in aqueous buffer” value [1] does the source give for TFNIEFRKAFLKILHC [D2 peptide] here?
A: rather insoluble in aqueous buffer
